Columns and labels:
EGFR L858R/T790M = EGFR L858R/T790M (Homo sapiens (Human), UniProt P00533, L858R/T790M); assay: TR-FRET assay for ERBB kinases; assay type: biochemical; settings: geometric mean if measured more than once
Outline: (§1)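 Kinase pre-incubated 10 min with compound in pH 7.5 HEPES buffer with MgCl2 and DTT, then reacted 10 min at room temperature with fluorescein-poly-GluTyr and ATP (substrate mix at 3 mM ATP, 30 uM peptide). EDTA-quenched; Tb-pY20 antibody TR-FRET read at 520/490 nm.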

EGFR L858R/T790M/C797S = EGFR L858R/T790M/C797S (Homo sapiens (Human), UniProt P00533, C797S/L858R/T790M); assay: TR-FRET assay for ERBB kinases; assay type: biochemical; settings: geometric mean if measured more than once
Outline: as §1

EGFR WT = EGFR WT (Homo sapiens (Human), UniProt P00533); assay: TR-FRET assay for ERBB kinases; assay type: biochemical; settings: geometric mean if measured more than once
Outline: as §1

EGFR Exon20NPG = EGFR Exon20NPG (Homo sapiens (Human), UniProt P00533, INS770NPG); assay: TR-FRET assay for ERBB kinases; assay type: biochemical; settings: geometric mean if measured more than once
Outline: (§2)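 Compounds pre-incubated 10 min with kinase in HEPES pH 7.5 buffer (MgCl2, DTT, Pluronic), then reaction started with substrate mix (3 mM ATP, 30 µM fluorescein-poly-GluTyr, stock levels) for 10 min at room temperature. EDTA-quenched, detected by Tb-pY20 antibody TR-FRET (520/490 nm emission).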

HER3 = HER3 (Homo sapiens (Human), UniProt P21860); assay: TR-FRET assay for ERBB kinases; assay type: biochemical; settings: geometric mean if measured more than once
[1] = target: EGFR L858R/T790M double mutant (H1975) (Homo sapiens (Human), UniProt P00533, L858R/T790M); assay: EGFR protein degradation assay (Western blot); assay type: cell-based; settings: 72 hours, 300 nM to 10 nM
Outline: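 Cells carrying the relevant EGFR form were plated at 300,000 cells per well in 6-well plates and left to attach overnight. After washing in ice-cold PBS, cells were lysed in 400 μl lysis buffer with protease inhibitors, scraped, and clarified at 10 000 rpm for 10 minutes. EGFR levels were then assessed by Western blot with tubulin as loading control.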

[2] = target: EGFR L858R/T790M/C797S triple mutant (H520*) (Homo sapiens (Human), UniProt P00533, C797S/L858R/T790M); assay: EGFR protein degradation assay (Western blot); assay type: cell-based; settings: 72 hours, 300 nM to 10 nM
Outline: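 EGFR loss in the triple-mutant line measured by immunoblot: clarified lysates normalised by BCA, run on 4-12% Bis-Tris gels, blotted to PVDF, probed with HRP anti-rabbit secondary. Before lysis, cells were dosed from 1, 0.3, 0.1, 0.03 and 0.01 mM DMSO stocks (not final concentrations) after overnight culture at 37° C.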

EGFR Δ19/746/750 = EGFR Δ19/746/750 (Homo sapiens (Human), UniProt P00533, DEL746-750); assay: TR-FRET assay for ERBB kinases; assay type: biochemical; settings: geometric mean if measured more than once
Outline: as §2

EGFR Δ19/746/750 T790M = EGFR Δ19/746/750 T790M (Homo sapiens (Human), UniProt P00533, DEL746-750/T790M); assay: TR-FRET assay for ERBB kinases; assay type: biochemical; settings: geometric mean if measured more than once
Outline: as §2

[3] = target: EGFR-wt (MDA-MB-231 or MCF7 or A549 or OVCAR8) (Homo sapiens (Human), UniProt P00533); assay: EGFR protein degradation assay (Western blot); assay type: cell-based; settings: 72 hours, 300 nM to 10 nM
Outline: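 Cells carrying the relevant EGFR form were plated at 300,000 per well in 6-well plates and left overnight to attach. For harvest, cells were rinsed once in ice-cold PBS and lysed in 400 μl lysis buffer containing protease inhibitors. Lysates were cleared at 10 000 rpm for 10 minutes and their protein content measured by BCA. Then 10 μg per sample was separated by SDS/PAGE at 165V for 2 hours, and EGFR was detected by ECL on a Chemidoc.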

Chain of EGFR L858R/T790M/C797S (P00533 25-1210 T790M/C797S/L858R): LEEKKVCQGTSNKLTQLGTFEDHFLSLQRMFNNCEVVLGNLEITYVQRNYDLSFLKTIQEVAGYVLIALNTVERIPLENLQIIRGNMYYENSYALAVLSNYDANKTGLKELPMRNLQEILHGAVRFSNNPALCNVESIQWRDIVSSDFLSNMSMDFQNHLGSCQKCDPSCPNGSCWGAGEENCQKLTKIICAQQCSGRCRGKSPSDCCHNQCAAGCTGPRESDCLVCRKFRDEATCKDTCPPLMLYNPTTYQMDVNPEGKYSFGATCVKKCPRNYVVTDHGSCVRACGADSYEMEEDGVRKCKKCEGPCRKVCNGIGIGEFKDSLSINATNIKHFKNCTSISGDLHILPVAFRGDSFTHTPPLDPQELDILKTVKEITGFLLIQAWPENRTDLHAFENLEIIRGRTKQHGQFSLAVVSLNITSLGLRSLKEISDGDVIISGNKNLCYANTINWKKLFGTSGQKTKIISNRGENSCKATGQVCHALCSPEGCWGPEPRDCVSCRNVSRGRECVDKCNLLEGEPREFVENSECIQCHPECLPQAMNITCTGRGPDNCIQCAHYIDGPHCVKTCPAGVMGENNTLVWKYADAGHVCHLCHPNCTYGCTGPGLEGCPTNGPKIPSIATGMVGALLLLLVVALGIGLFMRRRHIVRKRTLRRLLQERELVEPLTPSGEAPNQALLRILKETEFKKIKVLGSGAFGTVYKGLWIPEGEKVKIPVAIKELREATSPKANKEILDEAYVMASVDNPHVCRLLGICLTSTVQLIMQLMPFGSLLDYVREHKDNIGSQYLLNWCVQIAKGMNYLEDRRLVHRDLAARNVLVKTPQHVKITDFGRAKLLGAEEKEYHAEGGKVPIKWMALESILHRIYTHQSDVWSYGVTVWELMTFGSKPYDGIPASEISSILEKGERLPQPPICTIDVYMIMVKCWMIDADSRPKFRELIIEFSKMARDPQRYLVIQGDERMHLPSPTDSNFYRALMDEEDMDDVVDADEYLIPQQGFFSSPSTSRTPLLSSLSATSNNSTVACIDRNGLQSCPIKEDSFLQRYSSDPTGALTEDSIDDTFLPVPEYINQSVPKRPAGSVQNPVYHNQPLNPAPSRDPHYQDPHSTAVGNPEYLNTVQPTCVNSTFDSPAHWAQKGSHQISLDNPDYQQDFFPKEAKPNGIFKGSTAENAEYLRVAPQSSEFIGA
Chain of HER3 (P21860 20-1342, species assumed): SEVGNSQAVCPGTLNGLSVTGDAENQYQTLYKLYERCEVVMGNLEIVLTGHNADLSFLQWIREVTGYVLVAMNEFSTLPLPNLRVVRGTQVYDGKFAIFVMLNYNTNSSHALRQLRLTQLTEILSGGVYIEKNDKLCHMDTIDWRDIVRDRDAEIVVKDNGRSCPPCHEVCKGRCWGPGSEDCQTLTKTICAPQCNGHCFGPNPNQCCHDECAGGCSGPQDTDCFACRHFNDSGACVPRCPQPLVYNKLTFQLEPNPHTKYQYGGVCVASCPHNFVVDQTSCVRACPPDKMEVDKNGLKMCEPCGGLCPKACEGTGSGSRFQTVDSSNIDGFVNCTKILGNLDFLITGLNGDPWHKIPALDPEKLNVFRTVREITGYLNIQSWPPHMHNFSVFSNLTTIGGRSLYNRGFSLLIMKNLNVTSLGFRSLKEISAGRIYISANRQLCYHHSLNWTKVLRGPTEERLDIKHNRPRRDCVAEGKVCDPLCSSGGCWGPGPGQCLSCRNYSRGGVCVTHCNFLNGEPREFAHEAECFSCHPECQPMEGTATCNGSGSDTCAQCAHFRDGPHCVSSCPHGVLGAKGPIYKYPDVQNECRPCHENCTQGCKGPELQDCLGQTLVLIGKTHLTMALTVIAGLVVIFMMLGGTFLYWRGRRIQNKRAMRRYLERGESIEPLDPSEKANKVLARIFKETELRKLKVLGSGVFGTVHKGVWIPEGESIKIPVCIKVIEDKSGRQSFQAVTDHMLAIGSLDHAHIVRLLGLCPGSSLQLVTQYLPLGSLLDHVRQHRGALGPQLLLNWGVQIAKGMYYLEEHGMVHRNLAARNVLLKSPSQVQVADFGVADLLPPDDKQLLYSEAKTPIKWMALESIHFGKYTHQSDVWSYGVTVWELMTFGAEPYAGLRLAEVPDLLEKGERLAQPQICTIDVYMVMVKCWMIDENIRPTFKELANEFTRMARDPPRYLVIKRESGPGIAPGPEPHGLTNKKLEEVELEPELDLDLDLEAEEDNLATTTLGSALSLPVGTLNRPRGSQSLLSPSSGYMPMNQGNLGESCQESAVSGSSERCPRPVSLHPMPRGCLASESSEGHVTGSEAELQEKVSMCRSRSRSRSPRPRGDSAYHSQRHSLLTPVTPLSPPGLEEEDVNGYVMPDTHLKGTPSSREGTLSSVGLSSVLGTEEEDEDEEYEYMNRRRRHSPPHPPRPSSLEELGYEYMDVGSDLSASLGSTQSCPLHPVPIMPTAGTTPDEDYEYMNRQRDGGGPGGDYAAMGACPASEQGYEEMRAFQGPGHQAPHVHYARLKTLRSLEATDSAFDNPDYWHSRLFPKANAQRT
Chain of EGFR L858R/T790M (P00533 25-1210 T790M/L858R): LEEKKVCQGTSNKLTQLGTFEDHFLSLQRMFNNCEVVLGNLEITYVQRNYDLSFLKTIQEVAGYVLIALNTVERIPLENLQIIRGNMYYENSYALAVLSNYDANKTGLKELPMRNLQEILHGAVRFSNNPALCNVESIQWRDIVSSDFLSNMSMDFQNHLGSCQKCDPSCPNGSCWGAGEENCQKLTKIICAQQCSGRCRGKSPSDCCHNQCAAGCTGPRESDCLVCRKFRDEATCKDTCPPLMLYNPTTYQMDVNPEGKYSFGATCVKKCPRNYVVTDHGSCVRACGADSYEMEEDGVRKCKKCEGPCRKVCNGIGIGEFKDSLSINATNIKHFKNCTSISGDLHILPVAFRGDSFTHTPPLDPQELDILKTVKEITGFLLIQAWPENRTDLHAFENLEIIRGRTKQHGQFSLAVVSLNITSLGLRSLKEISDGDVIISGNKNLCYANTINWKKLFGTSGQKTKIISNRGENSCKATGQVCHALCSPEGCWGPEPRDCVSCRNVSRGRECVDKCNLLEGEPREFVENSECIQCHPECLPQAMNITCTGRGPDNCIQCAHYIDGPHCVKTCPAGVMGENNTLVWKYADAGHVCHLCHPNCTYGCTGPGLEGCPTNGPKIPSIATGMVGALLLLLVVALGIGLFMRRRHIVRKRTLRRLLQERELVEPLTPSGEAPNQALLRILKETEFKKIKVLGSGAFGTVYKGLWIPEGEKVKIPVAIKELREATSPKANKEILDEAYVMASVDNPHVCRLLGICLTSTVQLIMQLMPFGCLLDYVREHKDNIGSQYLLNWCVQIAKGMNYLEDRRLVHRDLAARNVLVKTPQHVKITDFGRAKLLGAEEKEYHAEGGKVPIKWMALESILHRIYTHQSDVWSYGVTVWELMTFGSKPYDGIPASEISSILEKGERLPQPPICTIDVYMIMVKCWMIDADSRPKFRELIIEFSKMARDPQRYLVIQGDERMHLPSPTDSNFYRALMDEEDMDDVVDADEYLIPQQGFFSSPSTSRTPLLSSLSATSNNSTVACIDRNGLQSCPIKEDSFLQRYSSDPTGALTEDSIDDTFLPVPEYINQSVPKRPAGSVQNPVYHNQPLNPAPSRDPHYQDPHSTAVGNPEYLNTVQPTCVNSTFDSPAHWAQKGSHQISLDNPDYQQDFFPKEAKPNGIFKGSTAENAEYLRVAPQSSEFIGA
Chain of EGFR L858R/T790M double mutant (H1975) (P00533 25-1210 T790M/L858R): as above

Row | SMILES | IC50 (EGFR L858R/T790M) [µM] | IC50 (EGFR L858R/T790M/C797S) [µM] | IC50 (EGFR WT) [µM] | IC50 (EGFR Exon20NPG) [µM] | IC50 (HER3) [µM] | EGFR protein remaining, EGFR L858R/T790M double mutant [1] | EGFR protein remaining, EGFR L858R/T790M/C797S triple mutant [2] | IC50 (EGFR Δ19/746/750) [µM] | IC50 (EGFR Δ19/746/750 T790M) [µM] | EGFR protein remaining, EGFR-wt [3]
1 | COC1(CCN2CCN(c3ccc4c(c3)C(=O)N(C3CCC(=O)NC3=O)C4=O)CC2)CCN(c2nccc(Nc3cc4c(cn3)nc(C)n4C(C)C)n2)CC1 (centres unmarked) [Example 78, 2-(2,6-dioxopiperidin-3-yl)-5-(4-(2-(1-(4-((1-isopropyl-2-methyl-1H-imidazo[4,5-c]pyridin-6-yl)amino)pyrimidin-2-yl)-4-methoxypiperidin-4-yl)ethyl)piperazin-1-yl)isoindoline-1,3-dione] | 0.25 | 0.025 | 5.7 | 5.6 | 25 | C (>80% EGFR protein remaining after 72 hours of incubation with the test compound at a concentration of 300 nM) | C (>80% EGFR protein remaining after 72 hours of incubation with the test compound at a concentration of 300 nM) |  |  | 
2 | O=C1CCC(N2C(=O)c3ccc(NCCOCCOCC#Cc4cccc5c4C(=O)N(C(C(=O)Nc4nccs4)c4cc(F)ccc4O)C5)cc3C2=O)C(=O)N1 (centres unmarked) [compound 83] | 2.5 | 1.2 | 3 | > 30 | > 30 | C (>80% EGFR protein remaining after 72 hours of incubation with the test compound at a concentration of 300 nM) |  |  |  | 
3 | COC1CCN(c2nccc(Nc3cc4c(cn3)nc(COCCOCCOCCOCCON3CCN(c5ccc6c(c5)C(=O)N(C5CCC(=O)NC5=O)C6=O)CC3)n4C(C)C)n2)CC1 (centres unmarked) [compound 75] | > 30 | > 30 | > 30 | > 30 | > 30 | C (>80% EGFR protein remaining after 72 hours of incubation with the test compound at a concentration of 300 nM) |  |  |  | 
4 | COC1CCN(c2nccc(Nc3cc4c(cn3)nc(COCCCN3CCN(CCCOc5ccc6c(c5)C(=O)N(C5CCC(=O)NC5=O)C6=O)CC3)n4C(C)C)n2)CC1 (centres unmarked) [compound 89] | 1.6 | 0.65 | > 30 | > 30 | > 30 | C (>80% EGFR protein remaining after 72 hours of incubation with the test compound at a concentration of 300 nM) |  |  |  | 
5 | COC1CCN(c2nccc(Nc3cc4c(cn3)nc(COCCOCCON3CCN(c5ccc6c(c5)C(=O)N(C5CCC(=O)NC5=O)C6=O)CC3)n4C(C)C)n2)CC1 (centres unmarked) [compound 74] | > 30 | 10 | > 30 | > 30 | > 30 | C (>80% EGFR protein remaining after 72 hours of incubation with the test compound at a concentration of 300 nM) |  |  |  | 
6 | COC1CCN(c2nccc(Nc3cc4c(cn3)nc(COCCOCCOCCOCC(=O)N[C@H](C(=O)N3C[C@@H](O)C[C@@H]3C(=O)N[C@@H](C)c3ccc(-c5scnc5C)cc3)C(C)(C)C)n4C(C)C)n2)CC1 [compound 79] | 29 | 7.6 | > 30 | > 30 | > 30 | C (>80% EGFR protein remaining after 72 hours of incubation with the test compound at a concentration of 300 nM) |  |  |  | 
7 | CC(C)n1nc(N2CC(CN3CCN(CC4CCN(c5ccc6c(c5)C(=O)N(C5CCC(=O)NC5=O)C6=O)CC4)CC3)C2)c2cnc(Nc3ccnc(-c4cnn(S(=O)(=O)C5CC5)c4)n3)cc21 (centres unmarked) [compound 313] | 0.00029 | 0.00026 | 0.0014 |  |  |  | A (≤50% EGFR protein remaining after 72 hours of incubation with the test compound at a concentration between 300 nM and 10 nM) | 0.0075 | 0.0016 | C (>80% EGFR protein remaining after 72 hours of incubation with the test compound at a concentration of 300 nM)
8 | COC1CCN(c2nccc(Nc3cc4c(cn3)nc(COCCON3CCN(c5ccc6c(c5)C(=O)N(C5CCC(=O)NC5=O)C6=O)CC3)n4C(C)C)n2)CC1 (centres unmarked) [compound 72] | > 30 | 30 | > 30 | 22 | > 30 | C (>80% EGFR protein remaining after 72 hours of incubation with the test compound at a concentration of 300 nM) |  |  |  | 
9 | COC1CCN(c2nccc(Nc3cc4c(cn3)nc(COCCOCC(=O)N[C@H](C(=O)N3C[C@@H](O)C[C@@H]3C(=O)N[C@@H](C)c3ccc(-c5scnc5C)cc3)C(C)(C)C)n4C(C)C)n2)CC1 [compound 77] | 9.1 | 9.4 | 24 | 12 | > 30 | C (>80% EGFR protein remaining after 72 hours of incubation with the test compound at a concentration of 300 nM) |  |  |  | 
10 | Cc1ncsc1-c1ccc([C@H](C)NC(=O)[C@H]2C[C@H](O)CN2C(=O)[C@@H](NC(=O)COCCOCCOCC#Cc2cccc3c2C(=O)N(C(C(=O)Nc2nccs2)c2cc(F)ccc2O)C3)C(C)(C)C)cc1 (some centres unmarked) [compound 84] | 0.68 | 0.27 | 1.8 | 5.3 | > 30 | C (>80% EGFR protein remaining after 72 hours of incubation with the test compound at a concentration of 300 nM) |  |  |  | 
11 | O=C1CCC(N2C(=O)c3ccc(NCCOCCOCCOCC#Cc4cccc5c4C(=O)N(C(C(=O)Nc4nccs4)c4cc(F)ccc4O)C5)cc3C2=O)C(=O)N1 (centres unmarked) [Example 82, 2-(7-(3-(2-(2-(2-((2-(2,6-dioxopiperidin-3-yl)-1,3-dioxoisoindolin-5-yl)amino)ethoxy)ethoxy)ethoxy)prop-1-yn-1-yl)-1-oxoisoindolin-2-yl)-2-(5-fluoro-2-hydroxyphenyl)-N-(thiazol-2-yl)acetamide] | 0.77 | 0.45 | 3.8 | > 30 | > 30 | C (>80% EGFR protein remaining after 72 hours of incubation with the test compound at a concentration of 300 nM) |  |  |  | 
12 | COC1CCN(c2nccc(Nc3cc4c(cn3)nc(COCCOCCOCCOCCOCC(=O)N[C@H](C(=O)N3C[C@H](O)C[C@H]3C(=O)N[C@@H](C)c3ccc(-c5scnc5C)cc3)C(C)(C)C)n4C(C)C)n2)CC1 [Example 81, (2S,4R)-1-((S)-18-(tert-butyl)-1-(1-isopropyl-6-((2-(4-methoxypiperidin-1-yl)pyrimidin-4-yl)amino)-1H-imidazo[4,5-c]pyridin-2-yl)-16-oxo-2,5,8,11,14-pentaoxa-17-azanonadecan-19-oyl)-4-hydroxy-N—((S)-1-(4-(4-methylthiazol-5-yl)phenyl)ethyl)pyrrolidine-2-carboxamide] | 8.6 | > 30 | 2.4 | 7.1 | > 30 | C (>80% EGFR protein remaining after 72 hours of incubation with the test compound at a concentration of 300 nM) |  |  |  | 

Source: patent publication US10994015B2, “EGFR proteolysis targeting chimeric molecules and associated methods of use” (Arvinas Operations, Inc., priority 2016, dated 2021)
